In ChEMBL document CHEMBL1201862, “PubChem BioAssay data set” (2004):
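Cells were grown in 96-well plates and exposed to each compound for 48 hours at five concentrations; endpoints were interpolated linearly between bracketing concentrations, or set to the highest concentration if not reached. At the GI50, growth is halved.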 The source made the active and inactive calls. No stated cut-off is given here; in the data, active = GI50 up to about 1.1 µM and inactive = higher.

What was measured:
Assay in all cases: DTP human tumour cell line panel, 48 h
[1] = test system: 786-0
[2] = test system: A498
[3] = test system: A549
[4] = test system: ACHN
[5] = test system: CAKI-1
[6] = test system: CCRF-CEM
[7] = test system: COLO 205
[8] = test system: DLD-1
[9] = test system: DMS-114
[10] = test system: DMS-273
[11] = test system: EKVX
[12] = test system: HCC 2998
[13] = test system: HCT-15
[14] = test system: HL-60
[15] = test system: HOP-18
[16] = test system: HOP-62
[17] = test system: HOP-92
[18] = test system: HT-29
[19] = test system: IGROV-1
[20] = test system: K562
[21] = test system: KM-20L2
[22] = test system: KM12
[23] = test system: LOX IMVI
[24] = test system: LXFL 529
[25] = test system: M14
[26] = test system: M19-MEL
[27] = test system: MOLT-4
[28] = test system: Malme-3M
[29] = test system: NCI-H226
[30] = test system: NCI-H23
[31] = test system: NCI-H460
[32] = test system: NCI-H522
[33] = test system: OVCAR-3
[34] = test system: OVCAR-4
[35] = test system: OVCAR-5
[36] = test system: OVCAR-8
[37] = test system: RPMI-8226
[38] = test system: RXF 631
[39] = test system: SF-268
[40] = test system: SF-295
[41] = test system: SF-539
[42] = test system: SK-MEL-28
[43] = test system: SK-MEL-2
[44] = test system: SK-MEL-5
[45] = test system: SK-OV-3
[46] = test system: SN12C
[47] = test system: SNB-19
[48] = test system: SNB-75
[49] = test system: SNB-78
[50] = test system: SW-620
[51] = test system: TK-10
[52] = test system: U-251
[53] = test system: UACC-257
[54] = test system: UACC-62
[55] = test system: UO-31
[56] = test system: XF498
[57] = test system: BT-549
[58] = test system: DU-145
[59] = test system: HCT-116
[60] = test system: Hs-578T
[61] = test system: MCF7
[62] = test system: MDA-MB-231
[63] = test system: MDA-MB-435
[64] = test system: MDA-N
[65] = test system: NCI/ADR-RES
[66] = test system: PC-3
[67] = test system: RXF 393
[68] = test system: SR
[69] = test system: T47D

CC(O)C(NC(=O)c1ccccc1)C(=O)N(Cc1ccccc1)Cc1ccccc1 (stereo unspecified)
GI50 [1]: > 100 µM (inactive)
GI50 [2]: 69.3 µM (inactive)
GI50 [3]: 80.9 µM (inactive)
GI50 [4]: > 100 µM (inactive)
GI50 [5]: 18.2 µM (inactive)
GI50 [6]: > 100 µM (inactive)
GI50 [7]: > 100 µM (inactive)
GI50 [8]: > 100 µM (inactive)
GI50 [9]: > 100 µM (inactive)
GI50 [10]: > 100 µM (inactive)
GI50 [11]: > 100 µM (inactive)
GI50 [12]: > 100 µM (inactive)
GI50 [13]: > 100 µM
GI50 [14]: 18.9 µM (inactive)
GI50 [15]: 37 µM (inactive)
GI50 [16]: > 100 µM (inactive)
GI50 [17]: 75.9 µM (inactive)
GI50 [18]: > 10 µM (inactive)
GI50 [19]: > 100 µM (inactive)
GI50 [20]: 97.9 µM (inactive)
GI50 [21]: > 100 µM (inactive)
GI50 [22]: > 100 µM (inactive)
GI50 [23]: > 100 µM (inactive)
GI50 [24]: > 100 µM (inactive)
GI50 [25]: > 100 µM (inactive)
GI50 [26]: > 100 µM (inactive)
GI50 [27]: 61.4 µM (inactive)
GI50 [28]: > 100 µM (inactive)
GI50 [29]: > 100 µM (inactive)
GI50 [30]: > 100 µM (inactive)
GI50 [31]: > 100 µM (inactive)
GI50 [32]: 7.03 µM (inactive)
GI50 [33]: > 100 µM (inactive)
GI50 [34]: > 100 µM (inactive)
GI50 [35]: > 100 µM (inactive)
GI50 [36]: > 100 µM (inactive)
GI50 [37]: 28.9 µM (inactive)
GI50 [38]: > 100 µM (inactive)
GI50 [39]: > 100 µM (inactive)
GI50 [40]: 94.4 µM (inactive)
GI50 [41]: > 100 µM (inactive)
GI50 [42]: > 100 µM (inactive)
GI50 [43]: > 100 µM (inactive)
GI50 [44]: 60 µM (inactive)
GI50 [45]: > 100 µM (inactive)
GI50 [46]: > 100 µM (inactive)
GI50 [47]: > 100 µM (inactive)
GI50 [48]: 47.5 µM (inactive)
GI50 [49]: > 100 µM (inactive)
GI50 [50]: > 100 µM (inactive)
GI50 [51]: > 100 µM (inactive)
GI50 [52]: > 100 µM (inactive)
GI50 [53]: 80.4 µM (inactive)
GI50 [54]: > 100 µM (inactive)
GI50 [55]: > 100 µM (inactive)
GI50 [56]: > 100 µM (inactive)

CCCN(CCCC(NC(C)=O)C(=O)NCc1ccccc1)C(=O)N(CCCl)N=O (stereo unspecified)
GI50 [1]: 0.638 µM (active)
GI50 [2]: 13.3 µM (inactive)
GI50 [3]: 5.83 µM (inactive)
GI50 [4]: 3.09 µM (inactive)
GI50 [57]: 19.2 µM (inactive)
GI50 [5]: 17.6 µM (inactive)
GI50 [6]: 6.87 µM (inactive)
GI50 [7]: 24.4 µM (inactive)
GI50 [8]: 14.5 µM (inactive)
GI50 [9]: 14.4 µM (inactive)
GI50 [10]: 4.52 µM (inactive)
GI50 [58]: > 100 µM (inactive)
GI50 [11]: 31.7 µM (inactive)
GI50 [12]: 4.4 µM (inactive)
GI50 [59]: 22.6 µM (inactive)
GI50 [13]: 15.5 µM
GI50 [14]: 3.97 µM (inactive)
GI50 [15]: 22.5 µM (inactive)
GI50 [16]: 2.73 µM (inactive)
GI50 [17]: 17.1 µM (inactive)
GI50 [18]: 30.5 µM (inactive)
GI50 [60]: > 100 µM (inactive)
GI50 [19]: 27 µM (inactive)
GI50 [20]: 16.9 µM (inactive)
GI50 [21]: 15.7 µM (inactive)
GI50 [22]: 21.1 µM (inactive)
GI50 [23]: 2.11 µM (inactive)
GI50 [24]: 18 µM (inactive)
GI50 [25]: 14.4 µM (inactive)
GI50 [26]: 12.2 µM (inactive)
GI50 [61]: > 100 µM (inactive)
GI50 [62]: > 100 µM (inactive)
GI50 [63]: > 100 µM (inactive)
GI50 [64]: > 100 µM (inactive)
GI50 [27]: 2.6 µM (inactive)
GI50 [28]: 22.4 µM (inactive)
GI50 [29]: 17.7 µM (inactive)
GI50 [30]: 8.75 µM (inactive)
GI50 [31]: 0.27 µM (active)
GI50 [32]: 20.7 µM (inactive)
GI50 [65]: > 100 µM (inactive)
GI50 [33]: 20.9 µM (inactive)
GI50 [34]: 37.9 µM (inactive)
GI50 [35]: 34.4 µM (inactive)
GI50 [36]: 10.4 µM (inactive)
GI50 [66]: > 100 µM (inactive)
GI50 [37]: 28.2 µM (inactive)
GI50 [67]: 17.8 µM (inactive)
GI50 [38]: 17.4 µM (inactive)
GI50 [39]: 1.42 µM (inactive)
GI50 [40]: 2.66 µM (inactive)
GI50 [41]: 0.977 µM (active)
GI50 [42]: 24.3 µM (inactive)
GI50 [43]: 26.9 µM (inactive)
GI50 [44]: 21.2 µM (inactive)
GI50 [45]: 25.7 µM (inactive)
GI50 [46]: 15.8 µM (inactive)
GI50 [47]: 5.13 µM (inactive)
GI50 [48]: 5.58 µM (inactive)
GI50 [49]: 15.4 µM (inactive)
GI50 [68]: 0.564 µM (active)
GI50 [50]: 7.4 µM (inactive)
GI50 [69]: > 100 µM (inactive)
GI50 [51]: 37.8 µM (inactive)
GI50 [52]: 3.53 µM (inactive)
GI50 [53]: 28.8 µM (inactive)
GI50 [54]: 1.04 µM (active)
GI50 [55]: 25.5 µM (inactive)
GI50 [56]: 9.89 µM (inactive)

CN(C)C(=S)/N=c1\ss/c(=N\S(=O)(=O)c2ccccc2)n1-c1ccccc1
GI50 [1]: 30.4 µM (inactive)
GI50 [2]: 50.9 µM (inactive)
GI50 [3]: 14.1 µM (inactive)
GI50 [4]: 24.2 µM (inactive)
GI50 [5]: > 100 µM (inactive)
GI50 [6]: 0.333 µM (active)
GI50 [8]: 13.5 µM (inactive)
GI50 [9]: 2.08 µM (inactive)
GI50 [10]: 12.9 µM (inactive)
GI50 [11]: 59.6 µM (inactive)
GI50 [12]: 38.8 µM (inactive)
GI50 [13]: 7.28 µM
GI50 [14]: 4.33 µM (inactive)
GI50 [15]: 32.6 µM (inactive)
GI50 [16]: 22.9 µM (inactive)
GI50 [17]: 14.7 µM (inactive)
GI50 [18]: 0.0522 µM (active)
GI50 [19]: 38 µM (inactive)
GI50 [20]: 0.953 µM (active)
GI50 [22]: 0.217 µM (active)
GI50 [23]: 4.06 µM (inactive)
GI50 [24]: 0.0481 µM (active)
GI50 [25]: 20.6 µM (inactive)
GI50 [26]: 19.4 µM (inactive)
GI50 [27]: 5.35 µM (inactive)
GI50 [28]: 30.1 µM (inactive)
GI50 [29]: 0.458 µM (active)
GI50 [30]: 16.1 µM (inactive)
GI50 [32]: 0.0855 µM (active)
GI50 [33]: 6.4 µM (inactive)
GI50 [34]: 0.185 µM (active)
GI50 [35]: > 100 µM (inactive)
GI50 [36]: 23.7 µM (inactive)
GI50 [37]: 0.344 µM (active)
GI50 [67]: 57.5 µM (inactive)
GI50 [38]: > 100 µM (inactive)
GI50 [39]: 38.9 µM (inactive)
GI50 [40]: 20.3 µM (inactive)
GI50 [41]: 19.7 µM (inactive)
GI50 [42]: 63.7 µM (inactive)
GI50 [43]: 11.5 µM (inactive)
GI50 [44]: 0.0653 µM (active)
GI50 [45]: 89.7 µM (inactive)
GI50 [46]: 33 µM (inactive)
GI50 [48]: > 100 µM (inactive)
GI50 [49]: 29 µM (inactive)
GI50 [50]: 9.95 µM (inactive)
GI50 [51]: 40.1 µM (inactive)
GI50 [52]: 27 µM (inactive)
GI50 [53]: 16.9 µM (inactive)
GI50 [54]: 0.297 µM (active)
GI50 [55]: 22 µM (inactive)
GI50 [56]: 19.5 µM (inactive)

CCCOc1ccc(/C=C\c2cc(OC)c(OC)c(OC)c2)cc1
GI50 [1]: > 100 µM (inactive)
GI50 [2]: 26.6 µM (inactive)
GI50 [3]: 40.7 µM (inactive)
GI50 [4]: 73.3 µM (inactive)
GI50 [5]: 58.3 µM (inactive)
GI50 [6]: > 100 µM (inactive)
GI50 [7]: 39.2 µM (inactive)
GI50 [8]: 87.7 µM (inactive)
GI50 [9]: 34.4 µM (inactive)
GI50 [10]: 36.3 µM (inactive)
GI50 [11]: 87.5 µM (inactive)
GI50 [59]: 40.5 µM (inactive)
GI50 [13]: 43.6 µM
GI50 [14]: 18.9 µM (inactive)
GI50 [15]: > 100 µM (inactive)
GI50 [16]: > 100 µM (inactive)
GI50 [17]: 34.7 µM (inactive)
GI50 [18]: 26.5 µM (inactive)
GI50 [19]: > 100 µM (inactive)
GI50 [20]: 23.8 µM (inactive)
GI50 [21]: 33 µM (inactive)
GI50 [22]: 28.4 µM (inactive)
GI50 [23]: 27.4 µM (inactive)
GI50 [24]: 52.8 µM (inactive)
GI50 [25]: 53.3 µM (inactive)
GI50 [26]: 67.8 µM (inactive)
GI50 [28]: 62.2 µM (inactive)
GI50 [29]: > 100 µM (inactive)
GI50 [31]: 68.2 µM (inactive)
GI50 [32]: 13.2 µM (inactive)
GI50 [33]: > 100 µM (inactive)
GI50 [34]: 30.5 µM (inactive)
GI50 [35]: 10.1 µM (inactive)
GI50 [36]: > 100 µM (inactive)
GI50 [37]: 14.5 µM (inactive)
GI50 [67]: 40.1 µM (inactive)
GI50 [38]: 37.1 µM (inactive)
GI50 [39]: > 100 µM (inactive)
GI50 [40]: 39.9 µM (inactive)
GI50 [41]: 74.3 µM (inactive)
GI50 [42]: 63.4 µM (inactive)
GI50 [44]: 13.6 µM (inactive)
GI50 [46]: 65.3 µM (inactive)
GI50 [47]: > 100 µM (inactive)
GI50 [48]: 85.5 µM (inactive)
GI50 [49]: > 100 µM (inactive)
GI50 [50]: 55.1 µM (inactive)
GI50 [51]: 31.8 µM (inactive)
GI50 [52]: 68.9 µM (inactive)
GI50 [53]: 54 µM (inactive)
GI50 [54]: 41.4 µM (inactive)
GI50 [55]: 33.2 µM (inactive)
GI50 [56]: 62.2 µM (inactive)
